Assay results from patent publication US6329399A, “Antifungal amine derivatives and processing for producing the same” (Pola Chemical Industries, Inc., priority 1997, dated 2001).
≈ marks a conversion by molar mass, not a printed value.

Experiments:
Assay in all cases: Measurement of antimycotic activity (minimum inhibitory concentration, MIC) against dermatophyte
Format in all cases: cell-based
M. canis TIMM0760 = details: Microsporum canis, 168 h, Sabouraud's agar pH=5.9, 27° C., 1 week
Protocol: (§1) The antimycotic activity of the compounds of the invention against dermatophyte was examined.
(§2) More particularly, the test dermatophyte strains shown in Tables 9 and 10 below were cultivated in advance on a slant culture of Sabouraud's agar medium (manufactured by Nissui Seiyaku Co., Ltd.; 1.0% peptone, 4.0% glucose, 1.5% agar, pH=5.9) at 27° C. for 2 weeks to allow them to grow conidia sufficiently. Then, sterilized physiological saline containing 0.05 weight/volume % of Tween 80 was added to the culture and while rubbing the surface of the culture with a platinum loop, the conidia were separated and caused to float. Using a hemocytometer, the filtrate was adjusted with sterilized physiological saline such that the concentration of conidia was 10^6 cells/ml, which was used as a test microbe liquid.
(§3) On the other hand, PR compounds and AD compounds (test drugs) of the present invention obtained in the examples described above were taken each in an amount of 10 mg, and 1 ml of dimethyl sulfoxide was added thereto to form a stock solution, of which 500 μl was taken and 500 μl of dimethyl sulfoxide was added thereto to prepare a 2-fold dilution. The same operation was repeated to prepare 13-stages ranging from 10 to 0.0025 mg/ml (final concentration of test system 100 to 0.025 μg/ml) of diluted drug solutions. Solutions with various diluted concentrations of test drug were each dispensed in sterilized petri dish with an amount of 100 μl. Then, 10 ml of sterile-dissolved Sabouraud's agar medium (1.0% peptone, 4.0% glucose, 1.5% agar, pH=5.9) was added, well mixed and solidified. Then, 5 μl of the test microbe solution previously adjusted were added using a microplanter, respectively.
(§4) The results are shown in Table 9 for PR compounds and in Table 10 for AD compounds, respectively. In the column of Compound No. in Tables 9 and 10, "PR-" or "AD-" were omitted.

M. gypseum IF08231 = details: Nannizzia gypsea, 168 h, Sabouraud's agar pH=5.9, 27° C., 1 week
Protocol: as §1, §2, §3, §4

[1] = test system: T. mentagrophytes IF05811; details: Trichophyton mentagrophytes, 168 h, Sabouraud's agar pH=5.9, 27° C., 1 week
Protocol: as §1, §2, §3, §4

[2] = test system: T. mentagrophytes IF07552; details: Trichophyton mentagrophytes, 168 h, Sabouraud's agar pH=5.9, 27° C., 1 week
Protocol: as §1, §2, §3, §4

[3] = test system: T. mentagrophytes TIMM1177; details: Trichophyton mentagrophytes, 168 h, Sabouraud's agar pH=5.9, 27° C., 1 week
Protocol: as §1, §2, §3, §4

[4] = test system: T. mentagrophytes TIMM1189; details: Trichophyton mentagrophytes, 168 h, Sabouraud's agar pH=5.9, 27° C., 1 week
Protocol: as §1, §2, §3, §4

T. rubrum IF05808 = details: Trichophyton rubrum, 168 h, Sabouraud's agar pH=5.9, 27° C., 1 week
Protocol: as §1, §2, §3, §4

T. rubrum IF09185 = details: Trichophyton rubrum, 168 h, Sabouraud's agar pH=5.9, 27° C., 1 week
Protocol: as §1, §2, §3, §4

T. violaceum TIMM1264 = details: Trichophyton violaceum, 168 h, Sabouraud's agar pH=5.9, 27° C., 1 week
Protocol: as §1, §2, §3, §4

| MIC (M. canis TIMM0760) [µg/mL] | MIC (M. gypseum IF08231) [µg/mL] | MIC [1] [µg/mL] | MIC [2] [µg/mL] | MIC [3] [µg/mL] | MIC [4] [µg/mL] | MIC (T. rubrum IF05808) [µg/mL] | MIC (T. rubrum IF09185) [µg/mL] | MIC (T. violaceum TIMM1264) [µg/mL] | Structure (SMILES) |
| --- | --- | --- | --- | --- | --- | --- | --- | --- | --- |
| 0.39 (≈ 1.46 µM) | 1.56 (≈ 5.83 µM) | 1.56 (≈ 5.83 µM) | 0.78 (≈ 2.92 µM) | 0.78 (≈ 2.92 µM) | 0.78 (≈ 2.92 µM) | 0.39 (≈ 1.46 µM) | 0.78 (≈ 2.92 µM) | 1.56 (≈ 5.83 µM) | C=C(CN(C)C/C=C/C#CC(C)(C)C)c1ccccc1 [Compound PR-1258, Trans-N-(6,6-dimethyl-2-hepten-4-ynyl)-N-methyl-2-phenyl-2-propenylamine] |
| 0.1 (≈ 0.35 µM) | 6.25 (≈ 21.9 µM) | 0.39 (≈ 1.37 µM) | 0.39 (≈ 1.37 µM) | 0.39 (≈ 1.37 µM) | 0.39 (≈ 1.37 µM) | 0.1 (≈ 0.35 µM) | 0.39 (≈ 1.37 µM) | 0.39 (≈ 1.37 µM) | C=C(CN(C)C/C=C/C#CC(C)(C)C)c1ccccc1F [Compound PR-1491, Trans-N-(6,6-dimethyl-2-hepten-4-ynyl)-N-methyl-[2-(2-fluorophenyl)-2-propenyl]amine] |
| 0.1 (≈ 0.289 µM) | 0.39 (≈ 1.13 µM) | 0.1 (≈ 0.289 µM) | 0.2 (≈ 0.578 µM) | 0.1 (≈ 0.289 µM) | 0.39 (≈ 1.13 µM) | 0.1 (≈ 0.289 µM) | 0.1 (≈ 0.289 µM) | 0.1 (≈ 0.289 µM) | C=C(CN(C)C/C=C/C#CC(C)(C)C)c1cccc(Br)c1 [Compound PR-1484, Trans-N-(6,6-dimethyl-2-hepten-4-ynyl)-N-methyl-[2-(3-bromophenyl)-2-propenyl]amine] |
| 0.39 (≈ 1.13 µM) | 6.25 (≈ 18 µM) | 1.56 (≈ 4.5 µM) | 1.56 (≈ 4.5 µM) | 1.56 (≈ 4.5 µM) | 1.56 (≈ 4.5 µM) | 0.39 (≈ 1.13 µM) | 1.56 (≈ 4.5 µM) | 0.39 (≈ 1.13 µM) | C=C(CN(C)C/C=C/C#CC(C)(C)C)c1ccccc1Br [Compound PR-1505, trans-N-(6,6-dimethyl-2-hepten-4-ynyl)-N-methyl-[2-(2-bromophenyl)-2-propenyl]amine] |
| 1.56 (≈ 5.52 µM) | 3.12 (≈ 11 µM) | 3.12 (≈ 11 µM) | 1.56 (≈ 5.52 µM) | 3.12 (≈ 11 µM) | 3.12 (≈ 11 µM) | 0.78 (≈ 2.76 µM) | 1.56 (≈ 5.52 µM) | 3.12 (≈ 11 µM) | C=C(CN(C)C/C=C/C#CC(C)(C)C)c1ccccc1N [Compound PR-1672, Trans-N-(6,6-dimethyl-2-hepten-4-ynyl)-N-methyl-[2-(2-aminophenyl)-2-propenyl]amine] |
| 0.1 (≈ 0.355 µM) | 1.56 (≈ 5.54 µM) | 0.1 (≈ 0.355 µM) | 0.39 (≈ 1.39 µM) | 0.39 (≈ 1.39 µM) | 0.1 (≈ 0.355 µM) | 0.1 (≈ 0.355 µM) | 0.1 (≈ 0.355 µM) | 0.1 (≈ 0.355 µM) | C=C(CN(C)C/C=C/C#CC(C)(C)C)c1cccc(C)c1 [Compound PR-1540, trans-N-(6,6-dimethyl-2-hepten-4-ynyl)-N-methyl-[2-(m-tolyl)-2-propenyl]amine] |

Second part, the compound before the results:

| Structure (SMILES) | MIC (M. canis TIMM0760) [µg/mL] | MIC (M. gypseum IF08231) [µg/mL] | MIC [1] [µg/mL] | MIC [2] [µg/mL] | MIC [3] [µg/mL] | MIC [4] [µg/mL] | MIC (T. rubrum IF05808) [µg/mL] | MIC (T. rubrum IF09185) [µg/mL] | MIC (T. violaceum TIMM1264) [µg/mL] |
| --- | --- | --- | --- | --- | --- | --- | --- | --- | --- |
| C=C(CN(C)Cc1ccc(C(C)(C)C)cc1)c1cccc(C#N)c1 [Compound AD-052, 3-[1-{N-(4-tert-butylbenzyl)-N-methylamino}methyl]vinylbenzonitrile] | 0.39 (≈ 1.22 µM) | 0.39 (≈ 1.22 µM) | 0.39 (≈ 1.22 µM) | 0.78 (≈ 2.45 µM) | 0.78 (≈ 2.45 µM) | 0.78 (≈ 2.45 µM) | 0.39 (≈ 1.22 µM) | 0.39 (≈ 1.22 µM) | 1.56 (≈ 4.9 µM) |
| C=C(CN(C)Cc1ccc(C(C)(C)C)cc1)c1cccc([N+](=O)[O-])c1 [Compound AD-037, N-(4-tert-butylbenzyl)-N-methyl-[2-(3-nitrophenyl)-2-propenyl]amine] | 0.78 (≈ 2.3 µM) | 3.12 (≈ 9.22 µM) | 1.56 (≈ 4.61 µM) | 1.56 (≈ 4.61 µM) | 1.56 (≈ 4.61 µM) | 3.12 (≈ 9.22 µM) | 0.78 (≈ 2.3 µM) | 0.78 (≈ 2.3 µM) | 3.12 (≈ 9.22 µM) |
| C=C(CN(C)C/C=C/C#CC(C)(C)C)c1cc(F)cc(F)c1 [Compound PR-2159, Trans-N-(6,6-dimethyl-2-hepten-4-ynyl)-N-methyl-[2-(3,5-difluorophenyl)-2-propenyl]amine] | 0.05 (≈ 0.165 µM) | 0.2 (≈ 0.659 µM) | 0.2 (≈ 0.659 µM) | 0.2 (≈ 0.659 µM) | 0.2 (≈ 0.659 µM) | 0.1 (≈ 0.33 µM) | 0.1 (≈ 0.33 µM) | 0.1 (≈ 0.33 µM) | 0.2 (≈ 0.659 µM) |
| C=C(CN(C)C/C=C/C#CC(C)(C)C)c1ccccc1C [Compound PR-1533, trans-N-(6,6-dimethyl-2-hepten-4-ynyl)-N-methyl-[2-(o-tolyl)-2-propenyl]amine] | 0.39 (≈ 1.39 µM) | 6.25 (≈ 22.2 µM) | 0.39 (≈ 1.39 µM) | 1.56 (≈ 5.54 µM) | 0.39 (≈ 1.39 µM) | 0.39 (≈ 1.39 µM) | 0.39 (≈ 1.39 µM) | 0.39 (≈ 1.39 µM) | 0.39 (≈ 1.39 µM) |
| C=C(CN(C)C/C=C/C#CC(C)(C)C)c1ccc(F)cc1 [Compound PR-1430, trans-N-(6,6-dimethyl-2-hepten-4-ynyl)-N-methyl-[2-(4-fluorophenyl)-2-propenyl]amine] | 0.39 (≈ 1.37 µM) | 6.25 (≈ 21.9 µM) | 0.39 (≈ 1.37 µM) | 0.39 (≈ 1.37 µM) | 0.39 (≈ 1.37 µM) | 0.39 (≈ 1.37 µM) | 0.39 (≈ 1.37 µM) | 0.39 (≈ 1.37 µM) | 0.39 (≈ 1.37 µM) |
| C=C(CN(C)Cc1ccc(C(C)(C)C)cc1)c1ccccc1C [Compound AD-028, N-(4-tert-butylbenzyl)-N-methyl-[2-(2-methylphenyl)-2-propenyl]amine] | 3.12 (≈ 10.1 µM) | 6.25 (≈ 20.3 µM) | 6.25 (≈ 20.3 µM) | 3.12 (≈ 10.1 µM) | 6.25 (≈ 20.3 µM) | 6.25 (≈ 20.3 µM) | 3.12 (≈ 10.1 µM) | 3.12 (≈ 10.1 µM) | 6.25 (≈ 20.3 µM) |
| C=C(CN(C)Cc1ccc(C(C)(C)C)cc1)c1ccc(C)c(C)c1 [Compound AD-043, N-(4-tert-butylbenzyl)-N-methyl-[2-(3,4-dimethylphenyl)-2-propenyl]amine] | 0.78 (≈ 2.43 µM) | 1.56 (≈ 4.85 µM) | 1.56 (≈ 4.85 µM) | 1.56 (≈ 4.85 µM) | 1.56 (≈ 4.85 µM) | 1.56 (≈ 4.85 µM) | 0.2 (≈ 0.622 µM) | 0.78 (≈ 2.43 µM) | 1.56 (≈ 4.85 µM) |
| C=C(CN(C)Cc1ccc(C(C)(C)C)cc1)c1ccccc1[N+](=O)[O-] [Compound AD-033, N-(4-tert-butylbenzyl)-N-methyl-[2-(2-nitrophenyl)-2-propenyl]amine] | 6.25 (≈ 18.5 µM) | 12.5 (≈ 36.9 µM) | 6.25 (≈ 18.5 µM) | 6.25 (≈ 18.5 µM) | 12.5 (≈ 36.9 µM) | 12.5 (≈ 36.9 µM) | 3.12 (≈ 9.22 µM) | 3.12 (≈ 9.22 µM) | 12.5 (≈ 36.9 µM) |
| CN(C/C=C/C#CC(C)(C)C)CC(=O)c1ccccc1O [Compound PR-1620, Trans-2-[N-(6,6-dimethyl-2-hepten-4-ynyl)-N-methylamino]-2'-hydroxyacetophenone] | 12.5 (≈ 43.8 µM) | 25 (≈ 87.6 µM) | 12.5 (≈ 43.8 µM) | 6.25 (≈ 21.9 µM) | 12.5 (≈ 43.8 µM) | 12.5 (≈ 43.8 µM) | 6.25 (≈ 21.9 µM) | 12.5 (≈ 43.8 µM) | 12.5 (≈ 43.8 µM) |
| C=C(CN(C)C/C=C/C#CC(C)(C)C)c1ccc(O)cc1 [Compound PR-1606, Trans-N-(6,6-dimethyl-2-hepten-4-ynyl)-N-methyl-[2-(4-hydroxyphenyl)-2-propenyl]amine] | 25 (≈ 88.2 µM) | 25 (≈ 88.2 µM) | 25 (≈ 88.2 µM) | 50 (≈ 176 µM) | 50 (≈ 176 µM) | 50 (≈ 176 µM) | 25 (≈ 88.2 µM) | 50 (≈ 176 µM) | 50 (≈ 176 µM) |
| C=C(CN(C)Cc1ccc(C(C)(C)C)cc1)c1ccc(C)cc1C [Compound AD-046, N-(4-tert-butylbenzyl)-N-methyl-[2-(2,4-dimethylphenyl)-2-propenyl]amine] | 6.25 (≈ 19.4 µM) | 12.5 (≈ 38.9 µM) | 6.25 (≈ 19.4 µM) | 6.25 (≈ 19.4 µM) | 12.5 (≈ 38.9 µM) | 12.5 (≈ 38.9 µM) | 1.56 (≈ 4.85 µM) | 3.12 (≈ 9.7 µM) | 12.5 (≈ 38.9 µM) |
| CN(CC(=O)c1ccccc1O)Cc1ccc(C(C)(C)C)cc1 [Compound AD-057, 2-[N-(4-tert-butylbenzyl)-N-methylamino]-2'-hydroxyacetophenone] | 6.25 (≈ 20.1 µM) | 12.5 (≈ 40.1 µM) | 12.5 (≈ 40.1 µM) | 12.5 (≈ 40.1 µM) | 12.5 (≈ 40.1 µM) | 12.5 (≈ 40.1 µM) | 3.12 (≈ 10 µM) | 6.25 (≈ 20.1 µM) | 6.25 (≈ 20.1 µM) |
